This note sets out measurements from patent US9504671B2, “Pharmaceutical compositions of spiro-oxindole compound for topical administration and their use as therapeutic agents” (Xenon Pharmaceuticals Inc., priority 2010, dated 2016).

Assay [1] relates to STZ-induced neuropathic pain model. As to the kind of experiment: STZ model of diabetic neuropathy, von Frey. It is filed as in vivo, male Sprague-Dawley rats. To be noted: 50 mg on left foot, 30 minutes post-dosing. An excerpt:
This study evaluates the efficacy of a pharmaceutical composition of the invention in the STZ-induced neuropathic pain model in male Sprague-Dawley rats, following acute dosing, as compared with a 5% (w/v) topical Lidocaine (Xylocaine®) and a 1.16% (w/v) topical Diclofenac (Voltaren®). A rodent model of painful peripheral diabetic neuropathy (PDN) that mimics human condition was created by inducing a diabetic state in the rat through the ablation of the insulin producing pancreatic beta cells. A single streptozotocin (STZ) injection destroys beta cells in rats and produces a diabetic state that over time progresses to painful Peripheral Diabetic Neuropathy (PDN).
Streptozotocin (STZ) was dissolved in citrate buffer (20 mM, pH 4.5) and administered at a dose of 60 mg/Kg, intraperitoneal, to induce pancreatic beta-cell death. Blood glucose level was measured once a week following injection, using the AccuSoft Blood Glucose Monitoring System. […] Hyperalgesia and allodynia, which are signs of diabetic neuropathic pain, were monitored using the von Frey test as described below. Von Frey measurements were recorded from both left and right paws. Only those with significant hyperalgesia as determined by reduced threshold, measured in grams, of paw withdrawal to the von Frey filament were enrolled in the study. […] During this time their health status was closely monitored.
The animals were randomly divided into 4 test groups (n=7 animals/group) including a vehicle control, a 5% (w/v) Lidocaine (Xylocaine®), a 1.16% (w/v) Diclofenac (Voltaren®), and a pharmaceutical composition with 4% (w/w) COMPOUND A. After baseline measurement, 50 mg of the test composition was applied on the entire left foot. […] The paw withdrawal thresholds of animals from mechanical tactile stimuli were measured using the Electrovonfrey anesthesiometer (Model 2290, IITC Life Science, Woodland Hills, Calif.). […] The force (g) required to elicit a crisp withdrawal response was recorded before dosing as a baseline measurement, and at 30 minutes post-dosing. […]

For assay [2], the system named is CCI-induced neuropathic pain model. As to the kind of experiment: time course of efficacy in neuropathic pain model, Chronic Constriction Injury, von Frey. It is filed as in vivo, Sprague-Dawley rats. The protocol:
Neuropathic pain is characterized by spontaneous pain and stimulus-evoked allodynia and hyperalgesia. Pharmaceutical compositions of the invention were evaluated in Chronic Constriction Injury model using Sprague-Dawley rats as described below.
An approximately 3 cm incision was made through the skin and the fascia at the mid thigh level of a rat's left hind leg using a no. 10 scalpel blade. The left sciatic nerve was exposed via blunt dissection through the biceps femoris with care to minimize haemorrhagia. Four loose ligatures were tied along the sciatic nerve using four chromic gut sutures at intervals of 1 mm to 2 mm apart. The tension of the loose ligatures was tight enough to induce slight constriction of the sciatic nerve when viewed under a dissection microscope at a magnification of 4 fold. As sham controls, the right sciatic nerve was exposed and manipulated in the same manner as described above, except sutures were not tied onto the nerve. Antibacterial ointment was applied directly into the wound, and the muscle was closed using sterilized sutures. Betadine® was applied onto the muscle and its surroundings, followed by skin closure with surgical clips.
A painful neuropathy was allowed to develop for at least 14 days in the ipsilateral leg as determined by lower paw withdrawal thresholds to a mechanical stimulus. Only those with significant hyperalgesia, as determined by reduced threshold of paw withdrawal to the von Frey filament, measured in grams, were enrolled in the study.
The response thresholds of animals to tactile stimuli were measured using the Model 2290 Electrovonfrey anesthesiometer (IITC Life Science, Woodland Hills, Calif.). Animals were placed in an elevated Plexiglass enclosure set on a mire mesh surface. After 15 minutes of accommodation, a von Frey hair was applied perpendicularly to the plantar surface of the ipsilateral hind paws of the animals with sufficient force, measured in grams, to elicit a crisp response of the paw. The response indicated a withdrawal from the painful stimulus and constituted the efficacy endpoint. The force (in grams) required to elicit a crisp withdrawal response was recorded before dosing as a baseline measurement, and at multiple time points post-dosing.
Three days prior to baseline measurement, animals were anaesthetized under isoflurane and the whole of the ipsilateral hind legs, including the upper sciatic notch thigh area, ankle and foot, was shaved. The animals were then randomly assigned to one of 4 different test groups including a vehicle control group, a 5% (w/v) Lidocaine (Xylocaine®), and 2 pharmaceutical compositions of the invention comprising COMPOUND A at 4% (w/w) containing either 5% or 10% Transcutol® P. After baseline measurement, 100 mg of the test composition was applied on the entire shaved area. The animals were then placed in plastic tubes for at least 15 minutes, to prevent early removal/ingestion of drug. Subsequently, animals were placed in the Plexiglas enclosure 15 minutes before von Frey measurement at the respective time points. Von Frey withdrawal thresholds were measured as the mean of several independent determinations made within 1-2 minutes of each other on the affected paw of each animal at 0.5, 1 and 2 hours post dosing.

As for `O=C(O)Cc1ccccc1Nc1c(Cl)cccc1Cl` [Diclofenac], the “paw withdrawal threshold of treated paw, CFB” value in assay [1] (1.16% (w/v) topical) is recorded as “No significant CFB”.

Take `CCN(CC)CC(=O)Nc1c(C)cccc1C` [Lidocaine, reference compound]: in assay [1] (5% (w/v) topical), the “paw withdrawal threshold of treated paw, percent mean change from baseline (CFB)” value worked out at 25.9%. In addition, the “paw withdrawal threshold, percent mean change from baseline (CFB)” value in assay [2] (5% (w/v) topical, 100 mg applied, 0.5 hours post-dosing) is “+23.1%”. Further, the “paw withdrawal threshold, CFB” value in assay [2] (5% (w/v) topical, time points later than 0.5 hours post-dosing, p>0.05) was “No significant changes”. For the same molecule, the “duration of analgesic effects post-dosing” value in assay [2] (5% topical) is “up to 0.5 hours”.
